Measurements as given in ChEMBL document CHEMBL1201862, “PubChem BioAssay data set” (2004).
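Briefly, cells in 96-well plates were exposed to five compound concentrations for 48 h, and endpoints were estimated by linear interpolation. The concentration for 50% growth inhibition is given as GI50.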 Activity calls are given as the source filed them. No stated cut-off is given here; in the data, active = GI50 up to about 1.1 µM and inactive = higher.

Legend:
Experiment in all cases: NCI tumour cell line growth inhibition, 48 h
UACC-62 = tested on: UACC-62
SK-MEL-2 = tested on: SK-MEL-2
OVCAR-5 = tested on: OVCAR-5
SN12C = tested on: SN12C
RPMI-8226 = tested on: RPMI-8226
NCI-H460 = tested on: NCI-H460
COLO 205 = tested on: COLO 205
IGROV-1 = tested on: IGROV-1
HCT-116 = tested on: HCT-116
K562 = tested on: K562
HOP-92 = tested on: HOP-92
MCF7 = tested on: MCF7
HOP-62 = tested on: HOP-62
SK-MEL-5 = tested on: SK-MEL-5
NCI-H522 = tested on: NCI-H522
UACC-257 = tested on: UACC-257
NCI/ADR-RES = tested on: NCI/ADR-RES
NCI-H23 = tested on: NCI-H23
MDA-MB-435 = tested on: MDA-MB-435
M14 = tested on: M14

Compound | GI50 (UACC-62) | GI50 (SK-MEL-2) | GI50 (OVCAR-5) | GI50 (SN12C) | GI50 (RPMI-8226) | GI50 (NCI-H460) | GI50 (COLO 205) | GI50 (IGROV-1) | GI50 (HCT-116) | GI50 (K562) | GI50 (HOP-92) | GI50 (MCF7) | GI50 (HOP-62) | GI50 (SK-MEL-5) | GI50 (NCI-H522) | GI50 (UACC-257) | GI50 (NCI/ADR-RES) | GI50 (NCI-H23) | GI50 (MDA-MB-435) | GI50 (M14)
O=C(NC(Cc1ccc(I)cc1)C(=O)O)c1ccc(Cl)cc1 (stereo unspecified) | 74.8 µM (inactive) | > 100 µM (inactive) | > 100 µM (inactive) | > 100 µM (inactive) | 59.3 µM (inactive) | > 100 µM (inactive) | > 100 µM (inactive) | > 100 µM (inactive) | > 100 µM (inactive) | > 100 µM (inactive) | 67.8 µM (inactive) | 37.8 µM (inactive) | > 100 µM (inactive) | > 100 µM (inactive) | 74.3 µM (inactive) | > 100 µM (inactive) | > 100 µM (inactive) | > 100 µM (inactive) | – | –
N#CC1(C#N)N[C@@H](c2ccsc2)[C@H]2C(=O)N(c3ccccc3)C(=O)[C@H]21 | 28.8 µM (inactive) | > 100 µM (inactive) | – | 89.1 µM (inactive) | 18.7 µM (inactive) | – | 93.8 µM (inactive) | 60.7 µM (inactive) | 79.1 µM (inactive) | 51.9 µM (inactive) | 65.2 µM (inactive) | – | > 100 µM (inactive) | 35.4 µM (inactive) | > 100 µM (inactive) | 29.6 µM (inactive) | > 100 µM (inactive) | > 100 µM (inactive) | 45.7 µM (inactive) | –
C[n+]1c2ccccc2n2c3ccccc3c(NCCCn3ccnc3)c(C#N)c21 | 2.74 µM (inactive) | 1.62 µM (inactive) | 4.1 µM (inactive) | 1.26 µM (inactive) | 1.22 µM (inactive) | 1.44 µM (inactive) | 1.23 µM (inactive) | – | 1.08 µM (active) | 2.39 µM (inactive) | 3.15 µM (inactive) | 0.547 µM (active) | 2.03 µM (inactive) | 3.09 µM (inactive) | 0.575 µM (active) | 3.85 µM (inactive) | > 42 µM (inactive) | 2.27 µM (inactive) | 2.23 µM (inactive) | 2.26 µM (inactive)
Nc1ccn(C2OC(CO)C(O)C2(F)F)c(=O)n1 (stereo unspecified) | 0.127 µM (active) | – | 0.547 µM (active) | 0.261 µM (active) | 0.281 µM (active) | 0.0504 µM (active) | 0.82 µM (active) | 0.301 µM (active) | 0.0579 µM (active) | 0.325 µM (active) | 0.462 µM (active) | 0.0847 µM (active) | 0.0867 µM (active) | 0.436 µM (active) | 0.318 µM (active) | 0.312 µM (active) | 0.0755 µM (active) | 0.0391 µM (active) | 0.384 µM (active) | 0.0313 µM (active)
CCOC(=O)c1c(NC(=O)Nc2ccccc2)c(C(N)=O)c2n1CCCCC2 | > 100 µM (inactive) | > 100 µM (inactive) | – | – | > 100 µM (inactive) | > 100 µM (inactive) | > 100 µM (inactive) | > 100 µM (inactive) | > 100 µM (inactive) | > 100 µM (inactive) | > 100 µM (inactive) | > 100 µM (inactive) | > 100 µM (inactive) | > 100 µM (inactive) | – | > 100 µM (inactive) | > 100 µM (inactive) | > 100 µM (inactive) | > 100 µM (inactive) | > 100 µM (inactive)
CCOP(=O)(COCCn1nc(Br)c(=O)[nH]c1=O)OCC | – | > 100 µM (inactive) | > 100 µM (inactive) | > 100 µM (inactive) | > 100 µM (inactive) | > 100 µM (inactive) | > 100 µM (inactive) | > 100 µM (inactive) | – | > 100 µM (inactive) | > 100 µM (inactive) | > 100 µM (inactive) | > 100 µM (inactive) | > 100 µM (inactive) | > 100 µM (inactive) | > 100 µM (inactive) | > 100 µM (inactive) | > 100 µM (inactive) | > 100 µM (inactive) | > 100 µM (inactive)
NNC(N)Nc1ccccc1 (stereo unspecified) | > 100 µM (inactive) | > 100 µM (inactive) | > 100 µM (inactive) | > 100 µM (inactive) | – | > 100 µM (inactive) | > 100 µM (inactive) | > 100 µM (inactive) | – | > 100 µM (inactive) | > 100 µM (inactive) | > 100 µM (inactive) | > 100 µM (inactive) | > 100 µM (inactive) | > 100 µM (inactive) | > 100 µM (inactive) | > 100 µM (inactive) | > 100 µM (inactive) | > 100 µM (inactive) | > 100 µM (inactive)
COc1cc(C2S/C(=C/c3ccccc3)C(=O)N2c2cccc(NC(C)=O)c2)cc(OC)c1OC (stereo unspecified) | 29.1 µM (inactive) | – | 65.8 µM (inactive) | 45.2 µM (inactive) | – | – | 27.3 µM (inactive) | – | 17.2 µM (inactive) | 39.5 µM (inactive) | 16.4 µM (inactive) | 26.1 µM (inactive) | 67 µM (inactive) | 35.2 µM (inactive) | 13.5 µM (inactive) | 66.2 µM (inactive) | 27.9 µM (inactive) | 38 µM (inactive) | 18.3 µM (inactive) | 34.4 µM (inactive)
